Structures can show the parent of a compound that is named as a salt. Where two headings read alike, the source gives them in different places. Marks after values point to notes of the source that are not given here.
Key:
[1] = biological target: T1, elAChE (electric eel AChE) (Electrophorus electricus, UniProt O42275); assay: biochemical
T1 construct: purchased Sigma-Aldrich (Shanghai, PRC)
Protocol: (§1) The inhibitory activities of the synthesized compounds on ChEs were evaluated utilizing elAChE and eqBChE.
(§2) The ChE inhibition abilities of the compounds were determined using a modified version of Ellman’s assay. All the experiments were conducted in 96-well plates, and the readings were obtained using an EnSpire Multimode 2300 plate reader (Perkin Elmer, MA, USA) or a multimode microplate reader (Berthold Technologies). elAChE, eqBChE, S-acetylthiocholine iodide (ATCh), S-butyrylthiocholine iodide (BTCh) and 5-5′-dithiobis (2-nitrobenzoic) acid (DTNB) were purchased from Sigma-Aldrich (Shanghai, PRC). ATCh and BTCh stock solutions were freshly prepared in water. A stock solution of DTNB (Ellman’s reagent) was prepared fresh in a sodium phosphate buffer (100 mM, pH 7, 0.15% NaHCO3 w/v). Stock solutions of drugs were prepared in a solution of acetonitrile and water (v:v = 1:9). The pH for the measurements was 8.
(§3) First, 25 μL aliquots of drug solutions at different concentrations were added to 200 μL of elAChE (0.04 U/mL) or eqBChE (0.1 U/mL) in a phosphate buffer (100 mM sodium phosphate buffer, pH 8), and the reaction system was pre-incubated at 37 °C for determined time periods. Then, 25 μL of a solution containing ATCh or BTCh (2.5 mM) and DTNB (3.4 mM) in the 100 mM sodium phosphate buffer was added to the reactions. Enzyme activity (vi) was determined by measuring the absorbance (412 nm) at 37 °C for 5 min. […] A sample containing phosphate buffer (pH 8) in place of the enzyme was analyzed for each drug concentration to account for the spontaneous conversion of the substrate into a product, and the values obtained were subtracted from each measured activity.
(§4) This method was based on the general measurement of ChE activity. […] The measurements were repeated three times for each concentration.

[2] = biological target: T2, eqBChE (equine serum BChE) (Equus caballus, UniProt P81908); assay: Modified Ellman's assay, IC50 for eqBChE; type: biochemical; conditions: for fold less effective eqBChE inhibitor than the meta-position derivative: para- vs meta-position carbamate: MTR-13 vs MTR-1, MTR-14 vs MTR-2, MTR-15 vs MTR-3
T2 construct: BChE (equine serum BChE (eqBChE)); purchased Sigma-Aldrich (Shanghai, PRC); host or cells: equine serum
Protocol: as §1, §2, §3, §4

[3] = biological target: T3, eqBChE (Equus caballus, UniProt P81908); assay: Kinetic study of eqBChE inhibition, carbamylation rate constant kI; type: biochemical, equine; conditions: pre-incubation 1-45 min, seven concentrations, read-out: kI, second-order carbamylation rate constant, Mean ± SD (converted)
T3 construct: BChE (equine serum BChE (eqBChE)); purchased Sigma-Aldrich (Shanghai, PRC); host or cells: equine serum
Protocol: as §3

[4] = biological target: T3, eqBChE; assay: Decarbamylation rate constant k3 of carbamylated eqBChE; type: biochemical, equine
[5] = biological target: T1, elAChE (electric eel AChE); conditions: after pre-incubation with the enzyme for 60 min; read-out: elAChE IC50 Mean ± SD; cited from earlier work
[6] = biological target: T3, eqBChE; conditions: same conditions, cited from earlier work
[7] = biological target: T3, eqBChE; conditions: same conditions, cited from earlier work; remark: listed apart in the source
[8] = test system: BChE; conditions: cited from earlier work
[9] = test system: AChE; conditions: cited from earlier work
[10] = after pre-incubation with the enzyme for 60 min, 37 °C, pH 8, read-out: elAChE IC50 Mean ± SD
[11] = after pre-incubation with the enzyme for 60 min, 37 °C, pH 8, read-out: eqBChE IC50 Mean ± SD
[12] = elAChE IC50 Mean ± SD, after pre-incubation with the enzyme for 60 min, 37 °C, pH 8

T3 sequence (P81908 whole entry): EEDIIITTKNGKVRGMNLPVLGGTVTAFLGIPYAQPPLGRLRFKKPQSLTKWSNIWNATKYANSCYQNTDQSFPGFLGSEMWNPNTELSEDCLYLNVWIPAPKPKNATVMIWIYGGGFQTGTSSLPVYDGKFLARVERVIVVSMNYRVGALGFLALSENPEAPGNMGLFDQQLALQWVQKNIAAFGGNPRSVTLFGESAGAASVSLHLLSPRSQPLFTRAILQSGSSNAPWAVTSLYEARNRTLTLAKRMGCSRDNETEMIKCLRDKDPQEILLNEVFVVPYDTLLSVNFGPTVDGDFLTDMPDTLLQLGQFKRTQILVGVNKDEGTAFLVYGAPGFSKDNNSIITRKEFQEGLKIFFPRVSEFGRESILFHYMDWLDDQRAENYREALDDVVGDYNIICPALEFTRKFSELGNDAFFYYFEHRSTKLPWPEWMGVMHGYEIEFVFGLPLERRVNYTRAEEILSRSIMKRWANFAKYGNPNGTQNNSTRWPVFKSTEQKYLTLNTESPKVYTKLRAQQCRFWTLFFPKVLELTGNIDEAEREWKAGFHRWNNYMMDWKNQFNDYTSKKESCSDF
T2 sequence (P81908 whole entry): as above
T1 sequence (O42275 24-633): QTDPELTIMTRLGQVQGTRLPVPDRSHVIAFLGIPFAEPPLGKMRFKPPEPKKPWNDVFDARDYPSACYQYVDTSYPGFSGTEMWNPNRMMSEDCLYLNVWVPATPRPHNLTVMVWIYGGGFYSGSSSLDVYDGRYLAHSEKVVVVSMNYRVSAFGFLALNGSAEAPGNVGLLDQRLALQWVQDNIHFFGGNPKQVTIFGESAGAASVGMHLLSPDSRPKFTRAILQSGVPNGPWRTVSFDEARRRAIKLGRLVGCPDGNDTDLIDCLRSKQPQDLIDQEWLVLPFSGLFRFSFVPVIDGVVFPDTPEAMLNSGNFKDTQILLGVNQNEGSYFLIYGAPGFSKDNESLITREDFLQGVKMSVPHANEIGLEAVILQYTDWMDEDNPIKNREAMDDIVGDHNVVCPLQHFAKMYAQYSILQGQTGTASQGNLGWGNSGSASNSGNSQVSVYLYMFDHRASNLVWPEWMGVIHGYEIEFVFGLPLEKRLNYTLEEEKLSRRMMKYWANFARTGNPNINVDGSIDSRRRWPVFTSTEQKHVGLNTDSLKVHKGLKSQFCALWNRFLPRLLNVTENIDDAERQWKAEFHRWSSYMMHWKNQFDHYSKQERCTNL

Row | Compound | IC50 [1, 10] | IC50 [2, 11] | also measured
1 | CCN(C)C(=O)Oc1cccc(C(O)CN2CCCCC2)c1 (stereo not shown) [MTR-3, 3-(1-Hydroxy-2-(piperidin-1-yl)ethyl)phenyl Ethyl(methyl)carbamate] | > 100000 nM |  | IC50 ([1]; read-out: IC50(AChE)): > 100000 nM; IC50 ([2]; as printed in nM in abstract and text, read-out: IC50(BChE)): 78 nM; kinact/KI [3]: 4630 M⁻¹ s⁻¹; nature of BChE inhibition ([4]; activity recovery after dilution): pseudo-irreversible; k3, decarbamylation rate constant, Mean ± SD ([4]; eqBChE, N-methyl-N-ethyl-carbamylated, dilution 1:300, 37 °C, pH 8): 0.0093 ± 0.0010 h⁻¹
2 | CCN(C)C(=O)Oc1cccc(C(O)CN2CCCC2)c1 (stereo not shown) [MTR-7, 3-(1-Hydroxy-2-(pyrrolidin-1-yl)ethyl)phenyl Ethyl(methyl)carbamate] | 78900 ± 900 nM | 210 ± 10 nM | 
3 | CCN(C)C(=O)Oc1ccc(C(O)CN2CCCCC2)cc1 (stereo not shown) [MTR-15, 4-(1-Hydroxy-2-(piperidin-1-yl)ethyl)phenyl Ethyl(methyl)carbamate] | 59000 ± 16000 nM | 420 ± 20 nM | 
4 | CCN(C)C(=O)Oc1cccc(C(O)CNc2ccc(I)cc2)c1 (stereo not shown) [MTR-9, 3-(1-Hydroxy-2-((4-iodophenyl)amino)ethyl)phenyl Ethyl(methyl)carbamate] | > 100000 nM | 1730 ± 50 nM | 
5 | CCN(C)C(=O)Oc1cccc(C(O)CNC2CCCC2)c1 (stereo not shown) [MTR-5, 3-(2-(Cyclopentylamino)-1-hydroxyethyl)phenyl Ethyl(methyl)carbamate] | 92000 ± 7000 nM | 74 ± 5 nM | 
6 | CCN(C)C(=O)Oc1cccc(C(O)CNc2ccc(F)cc2)c1 (stereo not shown) [MTR-10, 3-(2-((4-Fluorophenyl)amino)-1-hydroxyethyl)phenyl Ethyl(methyl)carbamate] | > 100000 nM | 192 ± 7 nM | 
7 | CCN(C)C(=O)Oc1cccc(C(O)CNC(C)(C)CC)c1 (stereo not shown) [MTR-2, 3-(1-Hydroxy-2-(tert-pentylamino)ethyl)phenyl Ethyl(methyl)carbamate hydrochloride] |  | 170 ± 10 nM | IC50 [1, 12]: > 100000 nM
8 | CCN(C)C(=O)Oc1cccc(C(O)CNc2ccccc2)c1 (stereo not shown) [MTR-8, 3-(1-Hydroxy-2-(phenylamino)ethyl)phenyl Ethyl(methyl)carbamate] | > 100000 nM | 320 ± 20 nM | 
9 | CCN(C)C(=O)Oc1ccc(C(O)CNC(C)(C)CC)cc1 (stereo not shown) [MTR-14, 4-(1-Hydroxy-2-(tert-pentylamino)ethyl)phenyl Ethyl(methyl)carbamate] | > 100000 nM | 1700 ± 100 nM | fold less effective eqBChE inhibitor than the meta-position derivative [2]: ninefold
10 | C#Cc1cccc(NCC(O)c2cccc(OC(=O)N(C)CC)c2)c1 (stereo not shown) [MTR-12, 3-(2-((3-Ethynylphenyl)amino)-1-hydroxyethyl)phenyl Ethyl(methyl)carbamate] | > 100000 nM | 156 ± 7 nM | 
11 | CCN(C)C(=O)Oc1cccc(C(O)CNC2CCCCC2)c1 (stereo not shown) [MTR-4, 3-(2-(Cyclohexylamino)-1-hydroxyethyl)phenyl Ethyl(methyl)carbamate] | 79000 ± 4000 nM | 9 ± 0.4 nM | 
12 | CCN(C)C(=O)Oc1ccc(C(O)CNC(C)(C)C)cc1 (stereo not shown) [MTR-13, 4-(2-(Tert-butylamino)-1-hydroxyethyl)phenyl Ethyl(methyl)carbamate] | > 100000 nM | 8700 ± 300 nM | fold less effective eqBChE inhibitor than the meta-position derivative [2]: 22 fold
13 | CCN(C)C(=O)Oc1cccc(C(O)CN2CCOCC2)c1 (stereo not shown) [MTR-6, 3-(1-Hydroxy-2-morpholinoethyl)phenyl Ethyl(methyl)carbamate] | > 100000 nM | 2500 ± 200 nM | 
14 | CN(C)C(=O)Oc1cc(OC(=O)N(C)C)cc(C(O)CNC(C)(C)C)c1 (stereo not shown) [Bambuterol] |  |  | IC50 [5]: > 100000 nM; kI (kI1), carbamylation rate constant, Mean ± SD ([6]; listed as bambuterol): 1.44 ± 0.02 ×10^5 M^−1 min^−1; kI (kI1), carbamylation rate constant, Mean ± SD [6]: 1.44 ± 0.02 ^a ×10^5 M^−1 min^−1; k3, decarbamylation rate constant, Mean ± SD ([7]; listed as bambuterol): 0.0839 ± 0.0028 h⁻¹; k3, decarbamylation rate constant, Mean ± SD [7]: 0.0839 ± 0.0028 ^a ×h^−1; IC50 [8]: 3 nM; IC50 [9]: 30000 nM
15 | CCN(C)C(=O)Oc1cccc(C(O)CNC(C)(C)c2ccccc2)c1 (stereo not shown) [MTR-11, 3-(1-Hydroxy-2-((2-phenylpropan-2-yl)amino)ethyl)phenyl Ethyl(methyl)carbamate] | > 100000 nM | 323 ± 8 nM | 
16 | CCN(C)C(=O)Oc1cccc(C(O)CNC(C)(C)C)c1 (stereo not shown) [MTR-1, 3-(2-(Tert-butylamino)-1-hydroxyethyl)phenyl ethyl(methyl)carbamate Hydrochloride] |  | 370 ± 20 nM | IC50 [1, 12]: > 100000 nM

From paper PMC10780165 (Molecules, 2023)
